The record followed here is publication PMC11648822, “Lactam Truncation Yields a Dihydroquinazolinone Scaffold with Potent Antimalarial Activity that Targets PfATP4” (Chemmedchem, 2024).

The test deals with T1, Dd2‐PfATP4^WT (Plasmodium falciparum, UniProt A0A143ZZK9, G1128R).
T1 construct: We prepared membranes from Dd2‐Polδ‐PfATP4^G358S parasites (generated previously[22]) and Dd2‐Polδ parental parasites; endogenous in cells; host or cells: P. falciparum Dd2-Polδ trophozoites (membrane preparation)
T1 sequence (A0A143ZZK9 1-1264 G1128R): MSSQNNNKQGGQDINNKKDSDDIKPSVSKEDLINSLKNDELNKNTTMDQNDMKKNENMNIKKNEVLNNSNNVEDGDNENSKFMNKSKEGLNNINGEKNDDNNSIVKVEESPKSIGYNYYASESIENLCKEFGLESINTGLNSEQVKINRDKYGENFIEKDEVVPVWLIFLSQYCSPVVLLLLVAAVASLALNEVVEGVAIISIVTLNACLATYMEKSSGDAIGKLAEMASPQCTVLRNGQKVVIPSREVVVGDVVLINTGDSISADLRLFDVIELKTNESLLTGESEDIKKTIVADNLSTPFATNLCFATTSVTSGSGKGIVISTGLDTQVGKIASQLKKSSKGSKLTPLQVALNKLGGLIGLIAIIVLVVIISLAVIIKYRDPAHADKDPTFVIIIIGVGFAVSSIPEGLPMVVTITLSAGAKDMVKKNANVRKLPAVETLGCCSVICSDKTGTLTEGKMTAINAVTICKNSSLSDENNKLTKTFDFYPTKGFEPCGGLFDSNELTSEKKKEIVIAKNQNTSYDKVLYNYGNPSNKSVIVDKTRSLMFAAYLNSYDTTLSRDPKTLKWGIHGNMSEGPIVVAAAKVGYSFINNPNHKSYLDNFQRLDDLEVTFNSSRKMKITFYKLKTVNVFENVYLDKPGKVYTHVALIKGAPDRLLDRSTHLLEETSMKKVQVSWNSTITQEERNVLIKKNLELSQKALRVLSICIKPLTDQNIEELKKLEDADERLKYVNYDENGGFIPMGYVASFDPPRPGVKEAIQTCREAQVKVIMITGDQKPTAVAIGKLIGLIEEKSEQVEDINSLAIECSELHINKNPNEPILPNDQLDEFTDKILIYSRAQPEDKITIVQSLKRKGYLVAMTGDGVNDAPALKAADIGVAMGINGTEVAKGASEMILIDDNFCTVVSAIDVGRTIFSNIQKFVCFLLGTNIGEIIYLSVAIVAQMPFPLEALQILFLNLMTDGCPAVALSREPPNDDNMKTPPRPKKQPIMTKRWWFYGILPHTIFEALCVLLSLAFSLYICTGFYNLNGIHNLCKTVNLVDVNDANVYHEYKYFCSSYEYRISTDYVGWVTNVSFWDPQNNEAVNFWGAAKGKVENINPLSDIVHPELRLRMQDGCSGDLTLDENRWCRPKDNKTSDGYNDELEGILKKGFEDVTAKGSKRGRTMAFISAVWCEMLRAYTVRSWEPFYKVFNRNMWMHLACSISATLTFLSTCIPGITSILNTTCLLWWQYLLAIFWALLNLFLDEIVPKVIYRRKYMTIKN
Put plainly: PfATP4 Na+ assay (membrane ATPase), Dd2-Polδ parental membranes. The class given is biochemical, P. falciparum. To be noted: membranes from Dd2-Polδ parental parasites. On the procedure:
Figure 4 Dihydroquinazolinone analogs 14 and 36 (WJM062) inhibit Na^+‐ATPase activity in membranes prepared from isolated P. falciparum parasites, consistent with them being PfATP4 inhibitors. (A) The effects of dihydroquinazolinone compounds (2 μM), dihydroartemisinin (DHA; 50 nM; negative control) and 0.2 % v/v DMSO (solvent‐only control) on membrane ATPase activity under high‐[Na^+] conditions (152 mM Na^+) and low‐[Na^+] conditions (2 mM Na^+; stemming from the addition of 1 mM Na2ATP) in the presence and absence of the PfATP4 inhibitor cipargamin (50 nM). The membranes were prepared from isolated trophozoite‐stage 3D7 parasites. The Pi produced is expressed as a percentage of that measured in the 152 mM Na^+ Control. The data are from four independent experiments performed with different membrane preparations; the symbols show the data from individual experiments and the bars show the mean (+SEM). In individual experiments, the Pi produced in the 152 mM Na^+ Control varied from 66 to 96 nmol per mg (total) protein per min. A repeated measures ANOVA with a post hoc Tukey test was used to compare the (pre‐normalised) data for different compounds and conditions. […] In B−D, the Pi production measured in the low‐[Na^+] (2 mM) condition was subtracted from that measured in high‐[Na^+] […] The PfATP4‐associated ATPase activity is expressed as a percentage of that obtained for the high‐[Na^+] […]

For the compound `COc1cc(F)c2c(c1)NC(C)(C(=O)Nc1cncc(Cl)c1)N(C)C2=O` (centres unmarked) [Compound 36, N‐(5‐Chloropyridin‐3‐yl)‐5‐fluoro‐7‐methoxy‐2,3‐dimethyl‐4‐oxo‐1,2,3,4‐tetrahydroquinazoline‐2‐carboxamide], the EC50 (in general, the midpoint of the concentration-response curve) was 7.8 nM. With `CN1C(=O)c2ccc(Cl)cc2NC1(C)C(=O)Nc1cncc(Cl)c1` (centres unmarked) [Compound 14, 7‐Chloro‐N‐(5‐chloro‐3‐pyridyl)‐2,3‐dimethyl‐4‐oxo‐1H‐quinazoline‐2‐carboxamide] the figure was 8.4 nM.
